In US20190381337A1, “BORON NEUTRON CAPTURE THERAPY SYSTEM” (NEUBORON MEDTECH LTD., priority 2016, published 2019):

Tests used:
U343mga cells [1] = experiment: Intracellular retention of boron (Example 4); assay type: cell-based, human; details: for Boron content in U343mga cells, 0 h after removal of the boron-containing medium / Boron content in U343mga cells, 2 h after removal of the boron-containing medium / Boron content in U343mga cells, 7 h after removal of the boron-containing medium: 18 hours incubation, 5×10^−4 mol/L boron
Procedure: U343mga cells were plated on Petri dishes at a cell density of 75% and incubated for 18 hours with 1,4-dihydroxyboron-phenylalanine (BPA) or Phe-BF3 in tissue culture medium. Both boron compounds were added to the tissue culture medium at equimolar concentrations relative to the boron content (5×10^−4 mol/L boron). The incubation was terminated by replacing the boron-containing medium with a boron-free medium. Cell samples were taken at time points 0, 2 and 7 hours, respectively, where the 0 time point represented the time point when the incubation with the boron compound reached just 18 hours.
The cells were washed with cold PBS and immediately harvested by scooping off from the petri dish using rubber policeman, and collected in cold PBS and pelleted by centrifugation. The cell pellets were analyzed for total protein and boron content as described above. With intracellular uptake, the compound of formula (I) retained in the tumor cells was 50% of the total uptake at 7 h after the complete consumption of Ia in the medium.

U343mga cells [2] = experiment: Cell uptake of boron compounds (Example 2); assay type: cell-based, human; details: for boron content expressed as a function of the total cellular protein, Trial 1 / boron content expressed as a function of the total cellular protein, Trial 2: 6 hours incubation, 5×10^−4 mol/L boron; for boron content expressed as a function of the total cellular protein, Trial 1: 7.2 μg boron/mL media; for boron content expressed as a function of the total cellular protein, Trial 2: 7.7 μg boron/mL media
Procedure: (§1) An in vitro test of the Phe-BF3 of the Example 1 uses four different human-derived tumor cell lines U343mga, human liver cancer cell line Hep3B, human breast cancer cell line MCF7 and human Sarcoma cell line 4SS. Cells were plated on uncoated tissue culture dishes and incubated at 37° C. in an incubator with humidified air equilibrated with 5% CO2 (the medium was supplemented with 10% FCS and PEST (Penicillin 100 IU/mL and streptomycin […])). For cell passage, cells were trypsinized with trypsin-EDTA (phosphate buffered saline (PBS) with 0.25% trypsin and 0.02% EDTA, no calcium and magnesium).
U343mga cells were plated on Petri dishes at a cell density of 75% and incubated for 6 hours with 1,4-dihydroxyborylphenylalanine (BPA) or Phe-BF3 dissolved in tissue culture medium. Both boron-containing compounds were added at an equimolar concentration relative to the boron content (5×10^−4 mol/L boron) and dissolved in tissue culture medium. Incubation was terminated by removing the boron containing tissue culture medium and adding cold phosphate buffered saline solution (PBS buffer) in order to wash away excess medium from the cells. Cells were immediately harvested by scooping off from the petri dishes using rubber policeman, and collected in cold PBS and pelleted by centrifugation.
Total protein analysis was performed on cell samples according to the Bradford standard procedure. The precipitated cells were subjected to boron analysis by DC-plasmon atomic emission spectroscopy (DCP-AES). The sample (50-130 mg) was digested with sulfuric acid/nitric acid (1/1) at 60° C. Triton X-100 and water were added to give concentrations of 50 mg tissue/mL, 15% total acid v/v, and 5% Triton X-100 v/v. The boron concentration is based on known control sample.

U343mga = experiment: Uptake of Phe-BF3 by different tumor cells (Example 3); assay type: cell-based, human
Procedure: as §1
(§2) Four human-derived, different tumor cell lines: U343mga, Hep3B, MCF7, and 4SS were plated on Petri dishes at 40-50% (low) and 90-100% (high) cell densities, and incubated with Phe-BF3 in tissue culture as described above for 6 hours. Incubation was terminated by removing the boron-containing media and adding cold PBS buffer to wash excess media from the cells. Cells were immediately harvested by scooping off from the petri dishes using rubber policeman, and collected in cold PBS and pelleted by centrifugation. Total protein analysis was performed on cell samples according to the Bradford standard procedure (as described above).

[3] = system: mouse fibroblast L-929 cells; experiment: Cytotoxicity study, MTT colorimetry (Example 5); assay type: cell-based; details: for Relative cell proliferation RGR: 5 mmol/L, MTT
Procedure: The cell culture fluid containing the peptide bovine serum was incubated at 37 C for 24 hours. The passage cultured mouse fibroblast L-929 cells were used to prepare a cell suspension of 1×10^5 cells/mL, and the cell suspension was seeded on a 96-well cell culture plate (100 μl/well) and cultured in a carbon dioxide incubator at 37° C. for 24 hours. After the cells adhere to the wall, the supernatant was removed, the control solution (in absence of compound Ia) was added, and the culture solution of the test group (Phe-BF3 concentration of 5 mmol/L) was exchanged, and the culture was continued in the carbon dioxide incubator at 37° C. After 2 days, MTT solution was added to continue culture for 4 hours. The original solution was aspirated and DMSO was added and shaken for 10 min. The absorbance value was measured with an enzyme-linked immunometric instrument at a wavelength of 630 nm, and the relative proliferation rate (RGR) of the cells was calculated according to the absorbance according to the formula.

[4] = system: human Sarcoma cell line 4SS; experiment: Uptake of Phe-BF3 by different tumor cells (Example 3); assay type: cell-based; details: 6 hours
Procedure: as §1, §2

[5] = system: human breast cancer cell line MCF7; experiment: as above; assay type: cell-based; details: 6 hours
Procedure: as §1, §2

[6] = system: human liver cancer cell line Hep3B; experiment: as above; assay type: cell-based; details: 6 hours
Procedure: as §1, §2

Row | SMILES | Boron content in U343mga cells, 0 h after removal of the boron-containing medium (U343mga cells [1]) [μg boron/g cell pellet] | Boron content in U343mga cells, 2 h after removal of the boron-containing medium (U343mga cells [1]) [μg boron/g cell pellet] | Boron content in U343mga cells, 7 h after removal of the boron-containing medium (U343mga cells [1]) [μg boron/g cell pellet] | boron content expressed as a function of the total cellular protein, Trial 1 (U343mga cells [2]) | boron content expressed as a function of the total cellular protein, Trial 2 (U343mga cells [2]) | boron content as a function of the total cellular protein, low cell density (U343mga; U343mga, 40-50% cell density, 6 hours) [μg boron/g cell protein] | boron content as a function of the total cellular protein, high cell density (U343mga; U343mga, 90-100% cell density, 6 hours) [μg boron/g cell protein] | efficiency as boron carrier (U343mga; all four human tumor cell lines at low and high cell densities) | Relative cell proliferation RGR ([3]; 2 days) [%] | Relative cell proliferation RGR ([3]; 7 days) [%] | cytotoxicity assessment ([3]; graded by RGR (Table 5)) | tumor cell uptake, accumulation, and retention compared with BPA (U343mga cells [1]; summary of Examples 2-4, in vitro) | boron uptake compared with BPA (U343mga cells [2]; 6 hours) | boron content as a function of the total cellular protein, low cell density ([4]; 40-50% cell density) [μg boron/g cell protein] | boron content as a function of the total cellular protein, high cell density ([4]; 90-100% cell density) [μg boron/g cell protein] | boron content as a function of the total cellular protein, low cell density ([5]; MCF7, 40-50% cell density) [μg boron/g cell protein] | boron content as a function of the total cellular protein, high cell density ([5]; MCF7, 90-100% cell density) [μg boron/g cell protein] | boron content as a function of the total cellular protein, low cell density ([6]; 40-50% cell density) [μg boron/g cell protein] | boron content as a function of the total cellular protein, high cell density ([6]; 90-100% cell density) [μg boron/g cell protein]
1 | N[C@@H](CC1(BO)C=CC(BO)=CC1)C(=O)O (stereo partly drawn) [BPA, 1,4-dihydroxyborylphenylalanine, reference compound] | 0.072 | 0 | 0 | 62 | 39 |  |  |  |  |  |  |  |  |  |  |  |  |  | 
2 | [NH3+]C(Cc1ccccc1)[B-](F)(F)F (stereo not drawn) [Phe-BF3] | 0.83 | 0.56 | 0.41 | 549 | 421 | 102 | 178 | highly efficient boron carrier | 123 | 102 | no signs of toxicity | superior to BPA in tumor cell uptake, accumulation, and retention | better than boron phenylalanine (BPA) in boron uptake | 255 | 343 | 101 | 167 | 149 | 207
